This note sets out measurements from patent US8895558B2, “Arylpiperazine-containing pyrrole 3-carboxamide derivatives for treating depressive disorders” (Green Cross Corporation, priority 2008, dated 2014).

For assay [1], the target named is T1, human recombinant serotonin 5-HT2A receptor (Homo sapiens, UniProt P28223).
T1 construct: purchased PerkinElmer Life and Analytical Sciences, USA; host or cells: CHO-K1
The experiment in a line: Binding affinity for serotonin 5-HT2A receptor ([3H]Ketanserin). The note with it: CHO-K1 expressed receptor, 1 nM [3H]Ketanserin. The essentials:
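Membranes from CHO-K1 cells expressing recombinant receptor (5 ug/well) incubated 60 min at 27 with 1 nM [3H]ketanserin in 50 mM Tris-HCl pH 7.4, 4 mM CaCl2, 0.1% ascorbic acid; mianserin 20 uM defined nonspecific binding. Filtration and counting; IC50 by nonlinear regression over 7-8 concentrations in duplicate.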

Assay [2] concerns the target T2, human recombinant 5-HT2C receptor (Homo sapiens, UniProt P28335).
T2 construct: purchased PerkinElmer
T2 sequence (P28335 33-458): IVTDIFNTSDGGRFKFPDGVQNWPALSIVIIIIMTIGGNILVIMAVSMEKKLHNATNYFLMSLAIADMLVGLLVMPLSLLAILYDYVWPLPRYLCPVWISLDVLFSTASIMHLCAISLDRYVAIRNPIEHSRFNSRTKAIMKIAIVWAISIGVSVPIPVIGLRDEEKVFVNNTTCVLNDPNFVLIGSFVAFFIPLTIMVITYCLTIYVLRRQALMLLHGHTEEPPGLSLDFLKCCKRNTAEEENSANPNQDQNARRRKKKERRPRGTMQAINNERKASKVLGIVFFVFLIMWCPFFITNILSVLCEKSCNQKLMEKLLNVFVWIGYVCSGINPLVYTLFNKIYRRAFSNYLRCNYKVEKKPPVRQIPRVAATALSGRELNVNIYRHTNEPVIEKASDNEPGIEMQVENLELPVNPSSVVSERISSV
The experiment in a line: Binding affinity for serotonin 5-HT2C receptor ([3H]Mesulergine). The note with it: CHO-K1 membranes, 1.3 nM [3H]Mesulergine. Summed up:
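Competition binding with [3H]mesulergine; nonspecific binding defined with 100 uM mianserin. Incubation 60 min at 27, stopped by rapid filtration onto glass fiber filters presoaked in 0.5% PEI.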

For assay [3], the target named is T3, human serotonin transporter (Homo sapiens, UniProt P31645).
T3 construct: purchased PerkinElmer; host or cells: HEK-293
The experiment in a line: Binding affinity for serotonin transporter ([3H]Imipramine). To be noted: HEK-293 membranes, 2 nM [3H]Imipramine. Summed up:
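Membranes from HEK-293 cells expressing human serotonin transporter (5 ug/well) incubated with compound and 2 nM [3H]imipramine in 50 mM Tris-HCl pH 7.4, 120 mM NaCl, 5 mM KCl, 30 min at 27. Bound ligand separated by filtration onto glass fiber filters presoaked in 0.5% PEI, washed with ice-cold Tris-HCl/0.9% NaCl.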

The next assay has as its system mice. The experiment in a line: Anti-depressants activity in forced swimming test. In kind it is in vivo. To be noted: 100 mg/kg po, 60 min before testing, hydrochloride. The method, then:
To evaluate the anti-depressants activity of the compounds, the inhibitory effects on immobility in forced swimming test in mice were measured according to the methods described by Porsolt et al. [Porsolt R D et al., Eur J Pharmacol. 1978, 51, 291-294].
Each mouse was placed in a 25-cm glass cylinder (10 cm diameter) containing 15 cm of water maintained at 22±1 , and was forced to swim for 10 min. Twenty-four hours later, the mouse was replaced into the cylinder and the total duration of immobility was recorded during the last 5 min of the 6-min testing period. Mice are judged immobile when they float in an upright position and make only small movements to keep their head above water. Test drugs were suspended in 3% Tween 80 solution, and administered orally (po) 60 min before the testing.

T1 sequence (P28223 whole entry): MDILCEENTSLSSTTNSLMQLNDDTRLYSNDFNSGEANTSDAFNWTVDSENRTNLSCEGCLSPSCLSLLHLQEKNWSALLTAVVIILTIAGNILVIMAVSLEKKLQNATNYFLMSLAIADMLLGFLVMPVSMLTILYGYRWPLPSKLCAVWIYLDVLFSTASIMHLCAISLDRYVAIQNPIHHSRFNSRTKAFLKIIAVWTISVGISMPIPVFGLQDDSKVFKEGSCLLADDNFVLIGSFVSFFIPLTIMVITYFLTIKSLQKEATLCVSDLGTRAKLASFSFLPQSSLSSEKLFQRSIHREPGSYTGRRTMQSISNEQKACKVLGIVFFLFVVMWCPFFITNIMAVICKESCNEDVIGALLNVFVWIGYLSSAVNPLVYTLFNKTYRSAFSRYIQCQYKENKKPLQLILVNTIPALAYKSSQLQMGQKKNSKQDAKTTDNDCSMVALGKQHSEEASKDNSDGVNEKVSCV
T3 sequence (P31645 whole entry): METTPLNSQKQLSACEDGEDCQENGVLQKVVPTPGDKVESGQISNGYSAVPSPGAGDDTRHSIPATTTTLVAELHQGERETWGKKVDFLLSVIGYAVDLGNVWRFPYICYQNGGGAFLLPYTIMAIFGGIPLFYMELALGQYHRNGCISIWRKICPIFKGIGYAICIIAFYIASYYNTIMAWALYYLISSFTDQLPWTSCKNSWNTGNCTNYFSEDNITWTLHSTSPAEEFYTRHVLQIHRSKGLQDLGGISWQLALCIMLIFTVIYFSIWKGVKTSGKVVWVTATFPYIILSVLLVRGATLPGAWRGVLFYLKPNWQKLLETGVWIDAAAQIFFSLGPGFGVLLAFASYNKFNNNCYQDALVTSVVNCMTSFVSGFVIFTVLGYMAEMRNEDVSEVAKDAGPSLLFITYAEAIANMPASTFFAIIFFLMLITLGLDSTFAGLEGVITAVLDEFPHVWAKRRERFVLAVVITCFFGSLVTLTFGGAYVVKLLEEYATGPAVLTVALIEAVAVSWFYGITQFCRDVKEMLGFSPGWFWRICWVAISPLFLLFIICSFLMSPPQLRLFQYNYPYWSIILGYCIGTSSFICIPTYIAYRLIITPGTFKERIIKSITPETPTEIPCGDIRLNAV

Regarding `Cc1[nH]c(-c2ccccc2)cc1C(=O)NCCN1CCN(c2cccc(Cl)c2Cl)CC1.Cl` [Example 48, N-(2-(4-(2,3-dichlorophenyl)piperazin-1-yl)ethyl)-2-methyl-5-phenyl-1H-pyrrole-3-carboxamide hydrochloride], the figures for the IC50 in assay [1], in assay [2] and in assay [3] were 0.175 µM, 0.156 µM and 0.057 µM, respectively. Moreover, the “immobility in forced swimming test” value in the assay on mice came out at 26.1%.
On to `Cc1cc(C(=O)NCCCN2CCN(c3cccc(Cl)c3Cl)CC2)c(C)n1-c1ccccc1` [Example 170, N-(3-(4-(2,3-dichlorophenyl)piperazin-1-yl)propyl)-2,5-dimethyl-1-phenyl-1H-pyrrole-3-carboxamide], for which the IC50 in assay [1] was found to be 0.132 µM; in assay [2], 0.098 µM; in assay [3] it was 0.02 µM.
Consider `O=C(NCCCN1CCN(c2cccc(Cl)c2Cl)CC1)c1cc(-c2ccccc2)[nH]c1Cl` [Example 114, 2-chloro-N-(3-(4-(2,3-dichlorophenyl)piperazin-1-yl)propyl)-5-phenyl-1H-pyrrole-3-carboxamide], for which the IC50 in assay [1] came out at 0.022 µM; in assay [2], 0.107 µM; in assay [3], 0.059 µM.
